The numbers were not newly measured in patent publication EP3466413A1, “PHARMACEUTICAL COMPOSITION CONTAINING AGOMELATINE AND PROCESS FOR THE PREPARATION THEREOF” (KRKA, d.d., Novo mesto, priority 2017, dated 2019), which cites them from elsewhere.

As a reminder, the solubility is the concentration that dissolves in the medium under given conditions.

In brackets after ≈: the same amount, converted by molar mass. Read-outs that look alike come from different tables or passages of the source.

For data set [1] the following is noted: second (proton) dissociation step, aqueous solution.
For data set [2] the following is noted: crystalline powder.

In the case of `O=C(O)C(=O)O` [oxalic acid], in data set [1], the pKa2 is reported as 4.19.

`COc1ccc2cccc(CCNC(C)=O)c2c1` [Agomelatine, N[2-(7-methoxy-1-naphthyl)ethyl] acetamide]: the hygroscopicity entry in data set [2] is “non-hygroscopic”. Besides, where the note is “aqueous buffers”, the “solubility in aqueous buffers” value was “very slightly soluble”. Also, under “aqueous solution over the physiological pH range”, the “solubility in aqueous solution” value is listed as “very slightly soluble”. The solubility runs as follows: (dichloromethane) approximately 80 mg/mL (≈ 329 mM); (methanol) “approximately 500 mg/ml”. For the same compound, the “solubility in organic solvents” value (organic solvents such as methanol and dichloromethane) is on record as “freely soluble”. The solubility in water entry (water) was “practically insoluble”.
